Experimental data as given in patent US20230192704A1, “MONOCARBOXYLIC ACID TRANSPORTER 4 (MCT4) MODULATORS AND USES THEREOF” (Teon Therapeutics, Inc., priority 2020, published 2023).

Experiments:
MCT1 = biological target: T1, MCT1 (Homo sapiens, UniProt P53985); assay: MCT1 transport assay (L-lactate influx, BCECF-AM intracellular pH); format: cell-based; conditions: BT-20 cells expressing exclusively MCT1
T1 construct: BT-20 cells—a triple negative human breast cancer cell line expressing exclusively MCT1 (confirmed by Western blotting); host or cells: BT-20
T1 sequence (P53985 1-500): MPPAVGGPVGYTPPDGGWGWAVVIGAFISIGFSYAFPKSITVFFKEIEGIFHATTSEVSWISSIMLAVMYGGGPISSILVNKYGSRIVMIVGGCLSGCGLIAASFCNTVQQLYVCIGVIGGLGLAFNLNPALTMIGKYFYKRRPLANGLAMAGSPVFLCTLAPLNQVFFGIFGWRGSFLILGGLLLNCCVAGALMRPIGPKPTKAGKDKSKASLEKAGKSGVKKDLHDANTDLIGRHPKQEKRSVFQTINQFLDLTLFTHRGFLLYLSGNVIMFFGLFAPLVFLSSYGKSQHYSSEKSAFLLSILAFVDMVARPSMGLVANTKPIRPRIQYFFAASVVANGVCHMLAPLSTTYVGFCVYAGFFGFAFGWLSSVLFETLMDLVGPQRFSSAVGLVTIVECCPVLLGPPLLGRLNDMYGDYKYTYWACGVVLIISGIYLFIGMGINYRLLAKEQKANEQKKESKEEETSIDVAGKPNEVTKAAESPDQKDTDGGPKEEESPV
T1 sequence (P35613 140-385 partner limits assumed): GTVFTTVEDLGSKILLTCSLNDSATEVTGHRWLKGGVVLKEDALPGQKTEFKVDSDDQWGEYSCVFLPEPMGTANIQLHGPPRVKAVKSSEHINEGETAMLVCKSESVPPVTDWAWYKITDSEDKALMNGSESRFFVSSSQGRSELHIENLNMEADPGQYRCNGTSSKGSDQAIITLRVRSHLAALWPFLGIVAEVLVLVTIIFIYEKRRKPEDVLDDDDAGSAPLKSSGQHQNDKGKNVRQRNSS
Excerpt: The following in vitro MCT4 and MCT1 transport assays were used to measure the effect of the compounds on L-lactate influx into two different cell lines: • a) MDA-MB-231 cells—a triple negative human breast cancer cell line expressing exclusively MCT4 (confirmed by Western blotting) was used for the MCT4 transport assay, • b) BT-20 cells—a triple negative human breast cancer cell line expressing exclusively MCT1 (confirmed by Western blotting) was used for the
(§1) The compounds' efficacy in both assays was determined by calculating their IC50 value (the concentration of test compound that inhibited 50% of biological activity).
(§2) MCT4 is predominantly involved in cellular efflux of lactate from the cell, preventing intracellular acidification. In the MCT4 in vitro transport system described here it was possible to drive influx of lactate in the cells and test the compounds efficacy in preventing this process. MCT1 is involved in influx-efflux of lactate, and because it is closely related to MCT4, it is a major selectivity target for MCT4 inhibitor. The MCT1 in vitro transport system described here measured the influx of lactate in the cells and ability of test compounds in preventing this process.
BT-20 (ATCC); Media: EMEM+10% FBS+1% PS
(§3) Tyrode's Solution pH7.4 (NaCl 119 mM; KC1 5 mM; HEPES pH7.4 25 mM; CaCl2 2 mM; MgCl2 2 mM; Glucose 6 g/L)
(§4) The following assay was performed to assess MCT4 (MDA-MB-231 cell line) or MCT1 (BT-20 cell line) activity by monitoring the intracellular pH change that accompanies lactate/proton transport using the pH-sensitive fluorescent dye BCECF-AM.
(§5) Compound preparation: The compounds were serially diluted in 100% DMSO 1:3 for 8 pts and transferred (500 nl) to a 96-well plate by Echo.
(§6) Cell preparation: Cells were briefly rinsed with 10 ml of PBS solution to remove all traces of serum, trypsinized (0.05% Trypsin-EDTA) at 25° C. for 2-3 minutes and washed twice with Tyrode's solution. The cell viability and concentration were determined using Vi-Cell. Cells were resuspended in Tyrode's solution.
(§7) Cells were loaded with the pH sensitive dye BCECF-AM (5 uM final concentration from the 30 mM DMSO stock solution) at 37° C. for 30 minutes before being washed twice to remove excess dye and resuspended to 2 million/ml cells in Tyrode's solution. Cells were seeded into a 96-well plate (200,000 cells/well) directly onto the test compound or a reference compound for 10 minutes at 37° C. Following incubation with test compounds, 25 ul of 30 mM Sodium-L-lactate was added. This addition was performed on the FlexStation III as a part of a real-time kinetic protocol. The ratio of cellular fluorescence at 535 nm after excitation at 490 nm/440 nm was measured over time for baseline (pre-lactate addition) and post-lactate addition for 60 sec with or without compounds present. Inhibitory concentration response curves were generated for compounds and their IC50 values calculated.

MCT4 = biological target: T2, MCT4 (Homo sapiens, UniProt O15427); assay: MCT4 transport assay (L-lactate influx, BCECF-AM intracellular pH); format: cell-based; conditions: MDA-MB-231 cells expressing exclusively MCT4
T2 construct: MDA-MB-231 cells—a triple negative human breast cancer cell line expressing exclusively MCT4 (confirmed by Western blotting); host or cells: MDA-MB-231
T2 sequence (O15427 2-465 limits assumed): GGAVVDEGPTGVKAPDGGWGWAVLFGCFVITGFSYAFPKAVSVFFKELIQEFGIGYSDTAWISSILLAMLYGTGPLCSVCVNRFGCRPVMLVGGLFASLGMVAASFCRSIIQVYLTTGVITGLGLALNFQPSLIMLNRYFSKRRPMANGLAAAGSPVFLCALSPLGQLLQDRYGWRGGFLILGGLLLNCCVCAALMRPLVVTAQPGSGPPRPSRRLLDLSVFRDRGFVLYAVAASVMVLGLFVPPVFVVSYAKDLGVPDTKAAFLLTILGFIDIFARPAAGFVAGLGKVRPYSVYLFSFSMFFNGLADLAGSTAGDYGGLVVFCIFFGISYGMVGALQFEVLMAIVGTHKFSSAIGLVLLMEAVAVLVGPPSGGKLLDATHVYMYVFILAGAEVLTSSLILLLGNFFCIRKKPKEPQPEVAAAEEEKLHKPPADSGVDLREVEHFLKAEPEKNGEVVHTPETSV
Protocol: as §1, §2, §3, §4, §5, §6, §7

SMILES | IC50 (MCT1) | IC50 (MCT4)
COC1CN(C(=O)C23CC(c4ncc(N5CC[C@@H](Oc6c(C)nc7nc(C)nn7c6C)C5)cn4)(C2)C3)C1 [Compound 25, (R)-(3-methoxyazetidin-1-yl)(3-(5-(3-((2,5,7-trimethyl-[1,2,4]triazolo[1,5-a]pyrimidin-6-yl)oxy)pyrrolidin-1-yl)pyrimidin-2-yl)bicyclo[1.1.1]pentan-1-yl)methanone] | > 1000 nM | 500 to 1000 nM
Cc1nc2nc(C)c(O[C@@H]3CCN(c4cnc(C56CC(C(=O)N7CCOCC7)(C5)C6)nc4)C3)c(C)n2n1 [Compound 26, (R)-morpholino(3-(5-(3-((2,5,7-trimethyl-[1,2,4]triazolo[1,5-a]pyrimidin-6-yl)oxy)pyrrolidin-1-yl)pyrimidin-2-yl)bicyclo[1.1.1]pentan-1-yl)methanone] | > 1000 nM | 100 to 499 nM
Cc1nc2nc(C)c(O[C@@H]3CCN(c4ccc([C@H]5CC[C@H](C(=O)N6CC7(COC7)C6)CC5)cc4)C3)c(C)n2n1 [Compound 33, (2-oxa-6-azaspiro[3.3]heptan-6-yl)((1R,4r)-4-(4-((R)-3-((2,5,7-trimethyl-[1,2,4]triazolo[1,5-a]pyrimidin-6-yl)oxy)pyrrolidin-1-yl)phenyl)cyclohexyl)methanone] | > 1000 nM | < 100 nM
COC1CN(C(=O)[C@H]2CC[C@H](c3ccc(N4CC[C@@H](Oc5c(C)nc6nc(C)nn6c5C)C4)cc3)CC2)C1 [Compound 34, (3-methoxyazetidin-1-yl)((1R,4r)-4-(4-((R)-3-((2,5,7-trimethyl-[1,2,4]triazolo[1,5-a]pyrimidin-6-yl)oxy)pyrrolidin-1-yl)phenyl)cyclohexyl)methanone] | > 1000 nM | < 100 nM
Cc1nc2nc(C)c(O[C@@H]3CCN(c4ccc([C@H]5CC[C@H](C(=O)N6CCOCC6)CC5)cc4)C3)c(C)n2n1 [Compound 35, morpholino((1R,4r)-4-(4-((R)-3-((2,5,7-trimethyl-[1,2,4]triazolo[1,5-a]pyrimidin-6-yl)oxy)pyrrolidin-1-yl)phenyl)cyclohexyl)methanone] | > 1000 nM | < 100 nM

Other lines, results leading:

IC50 (MCT1) | IC50 (MCT4) | SMILES
> 1000 nM | 500 to 1000 nM | Cc1nc2nc(C)c(O[C@@H]3CCN(c4ccc(-c5ccc(C(=O)N6CC(C(N)=O)C6)nn5)cc4)C3)c(C)n2n1 [Compound 17, (R)-1-(6-(4-(3-((2,5,7-trimethyl-[1,2,4]triazolo[1,5-a]pyrimidin-6-yl)oxy)pyrrolidin-1-yl)phenyl)pyridazine-3-carbonyl)azetidine-3-carboxamide]
> 1000 nM | < 100 nM | Cc1nc2nc(C)c(O[C@@H]3CCN(c4ccc(-c5ccc(C(=O)N6CC(C(=O)N(C)C)C6)nn5)cc4)C3)c(C)n2n1 [Compound 18, (R)-N,N-dimethyl-1-(6-(4-(3-((2,5,7-trimethyl-[1,2,4]triazolo[1,5-a]pyrimidin-6-yl)oxy)pyrrolidin-1-yl)phenyl)pyridazine-3-carbonyl)azetidine-3-carboxamide]
> 1000 nM | < 100 nM | Cc1nc2nc(C)c(O[C@@H]3CCN(c4ccc(-c5ccc(C(=O)N6CCOCC6)nn5)cc4)C3)c(C)n2n1 [Compound 19, (R)-morpholino(6-(4-(3-((2,5,7-trimethyl-[1,2,4]triazolo[1,5-a]pyrimidin-6-yl)oxy)pyrrolidin-1-yl)phenyl)pyridazin-3-yl)methanone]
> 1000 nM | < 100 nM | Cc1cc2nc(C)c(O[C@@H]3CCN(c4ccc(-c5ccc(C(=O)N6CCOCC6)nn5)cc4)C3)c(C)n2n1 [Compound 20, (R)-morpholino(6-(4-(3-((2,5,7-trimethylpyrazolo[1,5-a]pyrimidin-6-yl)oxy)pyrrolidin-1-yl)phenyl)pyridazin-3-yl)methanone]
> 1000 nM | 500 to 1000 nM | Cc1nc2nc(C)c(O[C@@H]3CCN(c4cnc(C56CC(CN7CC8(COC8)C7)(C5)C6)nc4)C3)c(C)n2n1 [Compound 21, (R)-6-((3-(5-(3-((2,5,7-trimethyl-[1,2,4]triazolo[1,5-a]pyrimidin-6-yl)oxy)pyrrolidin-1-yl)pyrimidin-2-yl)bicyclo[1.1.1]pentan-1-yl)methyl)-2-oxa-6-azaspiro[3.3]heptane]
> 1000 nM | < 100 nM | COC1CN(CC23CC(c4ncc(N5CC[C@@H](Oc6c(C)nc7nc(C)nn7c6C)C5)cn4)(C2)C3)C1 [Compound 22, (R)-6-((1-(2-(3-((3-methoxyazetidin-1-yl)methyl)bicyclo[1.1.1]pentan-1-yl)pyrimidin-5-yl)pyrrolidin-3-yl)oxy)-2,5,7-trimethyl-[1,2,4]triazolo[1,5-a]pyrimidine]
> 1000 nM | < 100 nM | Cc1nc2nc(C)c(O[C@@H]3CCN(c4cnc(C56CC(CN7CCOCC7)(C5)C6)nc4)C3)c(C)n2n1 [Compound 23, (R)-4-((3-(5-(3-((2,5,7-trimethyl-[1,2,4]triazolo[1,5-a]pyrimidin-6-yl)oxy)pyrrolidin-1-yl)pyrimidin-2-yl)bicyclo[1.1.1]pentan-1-yl)methyl)morpholine]
> 1000 nM | > 1000 nM | Cc1nc2nc(C)c(O[C@@H]3CCN(c4cnc(C56CC(C(=O)N7CC8(COC8)C7)(C5)C6)nc4)C3)c(C)n2n1 [Compound 24, (R)-(2-oxa-6-azaspiro[3.3]heptan-6-yl)(3-(5-(3-((2,5,7-trimethyl-[1,2,4]triazolo[1,5-a]pyrimidin-6-yl)oxy)pyrrolidin-1-yl)pyrimidin-2-yl)bicyclo[1.1.1]pentan-1-yl)methanone]
